Common to all, as to experiment: growth of human tumour cells (NCI), 48 h
In experiment [1] the test system is SK-MEL-5 melanoma.
The test system of experiment [2] is BT-549 breast.
Experiment [3] concerns NCI-H522 lung.
The test system of experiment [4] is HS 578T breast.
Experiment [5] concerns EKVX NSCLC.
Experiment [6] concerns MALME-3M melanoma.
The test system of experiment [7] is SK-MEL-28 melanoma.
For experiment [8], the system named is ACHN renal.

Structures are written as SMILES. “And” between values parts separate entries of the source, which are not always exact repeats. Identical values can stand only once.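 Cultured in 96-well plates, cells were exposed to test compound for 48 hours across five concentrations. GI50 is the concentration that inhibits growth by half. TGI denotes the concentration required for complete inhibition of growth.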

As to `CO[C@H]1CC(O[C@@H]2/C(C)=C/C[C@@H]3C[C@@H](C[C@]4(CC[C@H](C)[C@@H](C5CCCCC5)O4)O3)OC(=O)[C@@H]3C=C(C)/C(=N/O)[C@H]4OC/C(=C\C=C\[C@@H]2C)[C@]43O)O[C@@H](C)C1O` (stereo partly drawn), the GI50 in experiment [1] was 1 µM; in experiment [2], 1.17 µM; in experiment [3], 1.12 µM; in experiment [4] it was 1.22 µM; in experiment [5], 0.951 µM; in experiment [6], 1.17 µM. In addition, the values for the GI50 in experiment [7] and in experiment [8] were 0.952 µM and 0.994 µM, respectively. Moreover, the TGI in experiment [1] was determined as 2.29 µM; in experiment [2], 3.41 µM; in experiment [3], 3.13 µM; in experiment [4], 5.52 µM; in experiment [5], 2.64 µM; in experiment [6], 3.15 µM. The values for the TGI in experiment [7] and in experiment [8] were 1.97 µM and 2.01 µM, respectively.
As for `O=C(c1ccc(Cl)cc1)C(O)c1ccc(Cl)cc1` (stereo not drawn), the TGI in experiment [1], in experiment [2], in experiment [3], in experiment [4], in experiment [5] and in experiment [6] was over 100 µM throughout. The TGI in experiment [7] and in experiment [8] was over 100 µM in each case.
For the molecule `CCCCCCCC/C=C/CCCCCCCC1=NC(C)(C)CN1CCO`, the GI50 is 2.87 µM in experiment [1]; 5.76 µM in experiment [2]; 1.81 µM in experiment [3]; 1.76 µM in experiment [4]; 3.55 µM in experiment [5]; 1.85 µM in experiment [6]. The GI50 in experiment [7] was 1.89 µM; in experiment [8], 2.28 µM. In addition, the TGI came out at 8.4 µM in experiment [1]; 19.6 µM in experiment [2]; 3.58 µM in experiment [3]; 3.98 µM in experiment [4]; 12.8 µM in experiment [5]; 3.88 µM in experiment [6]. For the same molecule, the TGI in experiment [7] was 3.39 µM; in experiment [8] it was 5.79 µM.
Regarding `CC(=O)c1cc(C(=O)c2ccc3c(c2)Sc2ccccc2N3)n2ccccc12`, the GI50 in experiment [1] is 0.00526 µM and 0.00332 µM; in experiment [2] it was 0.00773 µM and 0.0262 µM; in experiment [3], 0.00177 µM; in experiment [4], 0.00375 µM and 0.00332 µM; in experiment [5] it was 0.0291 µM and 0.00498 µM; in experiment [6], 0.00487 µM. For the same molecule, the GI50 in experiment [8] is 0.00545 µM. Further, the TGI is 0.818 µM and 0.742 µM in experiment [1]; over 33.2 µM in experiment [2]; 0.00517 µM in experiment [3]; over 33.2 µM in experiment [4]; over 33.2 µM in experiment [5]; over 33.2 µM in experiment [7].
For `CSc1nc2c(c(=O)n1C)CN(C1CCCCC1)C(=O)C(c1ccccc1)N2` (stereo not drawn), the GI50 in experiment [1] was 10.4 µM; in experiment [2], 13.2 µM; in experiment [3], 11.9 µM; in experiment [4] it was 15.9 µM; in experiment [5], 38.8 µM; in experiment [6] it was 10.9 µM. Also, the GI50 in experiment [7] is 17.1 µM; in experiment [8] it was 12.1 µM. The TGI in experiment [1] was 25.7 µM; in experiment [2], 49.4 µM; in experiment [3] it was over 100 µM; in experiment [4], 80.7 µM; in experiment [5], over 100 µM; in experiment [6] it was 43.5 µM. Besides, the TGI in experiment [7] is 83.3 µM; in experiment [8], over 100 µM.
Turning to `COC(=O)c1oc2c(C(=O)/C=C/c3ccc(OC)cc3)c(OCCN(C)C)ccc2c1C`, the GI50 in experiment [1] is 10.6 µM; in experiment [2], 4.88 µM; in experiment [3] it was 5.39 µM; in experiment [4], 6.27 µM; in experiment [5], 6.4 µM; in experiment [6], 11.4 µM. Besides, the GI50 in experiment [7] was 7.73 µM; in experiment [8], 5.9 µM. Further, the TGI in experiment [1] was determined as 22.4 µM; in experiment [2] it was 16 µM; in experiment [3] it was 20.2 µM; in experiment [4] it was 22.4 µM; in experiment [5], 19 µM; in experiment [6], 27.8 µM. Further, the TGI turned out to be 20.9 µM in experiment [7] and 19.5 µM in experiment [8].
In the case of `Cc1cc(Nc2nc(N[C@@H](C)c3ncc(F)cn3)ncc2Cl)n[nH]1`, the GI50 in experiment [1] is 26 µM; in experiment [2], 9.81 µM; in experiment [3] it was 21.1 µM; in experiment [4] it was 15.9 µM; in experiment [5], 56.8 µM; in experiment [6], 47.1 µM. For the same molecule, the GI50 was 38.1 µM in experiment [7] and 20.4 µM in experiment [8]. Besides, the TGI in experiment [1] is over 100 µM; in experiment [2], over 100 µM; in experiment [3] it was over 100 µM; in experiment [4], over 71.8 µM; in experiment [5], over 100 µM; in experiment [6], over 100 µM. Moreover, the TGI in experiment [7] and in experiment [8] was over 100 µM each time.
`CC(=O)NNc1nc(C)c(C(/C=C/c2ccccc2O)=N/N=C(N)N)s1`: the TGI in experiment [1], in experiment [2], in experiment [3], in experiment [4], in experiment [5] and in experiment [6] was over 100 µM throughout. For the same molecule, the TGI in experiment [7] and in experiment [8] was over 100 µM in each case.
As for `NS(=O)(=O)c1cc(C(=O)O)c(O)c2ccccc12`, the TGI in experiment [1], in experiment [2], in experiment [3], in experiment [4], in experiment [5] and in experiment [6] was over 100 µM throughout. The TGI in experiment [7] and in experiment [8] was over 100 µM in each case.
As for `Cn1cc(-c2cnn3c(N)c(Br)c(C4CCCNC4)nc23)cn1` (stereo not drawn), the GI50 is 3.64 µM in experiment [1]; 0.922 µM in experiment [2]; 24.5 µM in experiment [3]; 4 µM in experiment [4]; 10.4 µM in experiment [5]; 6.11 µM in experiment [6]. Besides, the GI50 was 24.3 µM in experiment [7] and 0.417 µM in experiment [8]. Moreover, the TGI was 18.7 µM in experiment [1]; 32.5 µM in experiment [2]; over 100 µM in experiment [3]; over 72.3 µM in experiment [4]; 70 µM in experiment [5]; 27.1 µM in experiment [6]. In addition, the TGI in experiment [7] and in experiment [8] was over 100 µM throughout.
`COc1ccc([C@@]23Oc4cc(OC)cc(OC)c4[C@]2(O)[C@H](O)[C@H](C(N)=O)[C@H]3c2ccccc2)cc1`: the TGI was 0.0329 µM and < 0.0139 µM in experiment [1]; 0.0847 µM and < 0.0226 µM in experiment [2]; 0.0737 µM and < 0.0104 µM in experiment [3]; 0.0914 µM and < 0.01 µM in experiment [4]; 0.108 µM and 0.158 µM in experiment [5]; 0.0909 µM and < 0.01 µM in experiment [6]. For the same molecule, in experiment [8], the TGI was 0.0474 µM and 0.0476 µM. In addition, the GI50 in experiment [4] is under 0.0135 µM; in experiment [6], 0.0161 µM; in experiment [7], under 0.0116 µM.

For the origin of these results see PubChem BioAssay (NCI).
